Assay [1] concerns dural protein extravasation. The experiment in a line: Animal model of dural protein extravasation (rat). The settings on record: for Inhibition of Dural Protein Extravasation ID50: rat, i.v. Format: in vivo. As to the method: (§1) The following animal model was employed to determine the ability of each of the panel of compounds to inhibit protein extravasation, an exemplary functional assay of the neuronal mechanism of migraine.
Harlan Sprague-Dawley rats (225–325 g) or guinea pigs from Charles River Laboratories (225–325 g) were anesthetized with sodium pentobarbital intraperitoneally (65 mg/kg or 45 mg/kg respectively) and placed in a stereotaxic frame (David Kopf Instruments) with the incisor bar set at −3.5 mm for rats or −4.0 mm for guinea pigs. Following a midline sagital scalp incision, two pairs of bilateral holes were drilled through the skull (6 mm posterially, 2.0 and 4.0 mm laterally in rats; 4 mm posteriorly and 3.2 and 5.2 mm laterally in guinea pigs, all coordinates referenced to bregma). Pairs of stainless steel stimulating electrodes, insulated except at the tips (Rhodes Medical Systems, Inc.), were lowered through the holes in both hemispheres to a depth of 9 mm (rats) or 10.5 mm (guinea pigs) from dura.
The femoral vein was exposed and a dose of the test compound was injected intravenously (i.v.) at a dosing volume of 1 ml/Kg or, in the alternative, test compound was administered orally (p.o) via gavage at a volume of 2.0 ml/Kg. Approximately 7 minutes post i.v. injection, a 50 mg/Kg dose of Evans Blue, a fluorescent dye, was also injected intravenously. The Evans Blue complexed with proteins in the blood and functioned as a marker for protein extravasation. Exactly 10 minutes post-injection of the test compound, the left trigeminal ganglion was stimulated for 3 minutes at a current intensity of 1.0 mA (5 Hz, 4 msec duration) with a Model 273 potentiostat/galvanostat (EG&G Princeton Applied Research).
Fifteen minutes following stimulation, the animals were killed and exsanguinated with 20 mL of saline. The top of the skull was removed to facilitate the collection of the dural membranes. […]
(§2) A fluorescence microscope (Zeiss) equipped with a grating monchromator and a spectrophotometer was used to quantify the amount of Evans Blue dye in each sample. An excitation wavelength of approximately 535 nm was utilized and the emission intensity at 600 nm was determined. […] This facilitated the computer-controlled movement of the stage with fluorescence measurements at 25 points ([…]) on each dural sample. The mean and standard deviation of the measurements were determined by the computer.
(§3) The extravasation induced by the electrical stimulation of the trigeminal ganglion was an ipsilateral effect (i.e. occurs only on the side of the dura in which the trigeminal ganglion was stimulated). […] The ratio of the amount of extravasation in the dura from the stimulated side, over the amount of extravasation in the unstimulated side, was calculated. […]

In assay [2] the test system is dural protein extravasation. The assay can be described thus: Animal model of dural protein extravasation (guinea pig). Format: in vivo. To be noted: Gpig (guinea pig), i.v. On the procedure: as §1
Harlan Sprague-Dawley rats (225–325 g) or guinea pigs from Charles River Laboratories (225–325 g) were anesthetized with sodium pentobarbital intraperitoneally (65 mg/kg or 45 mg/kg respectively) and placed in a stereotaxic frame (David Kopf Instruments) with the incisor bar set at −3.5 mm for rats or −4.0 mm for guinea pigs. […]
as §2, §3

This is an account of results in US7157582B2, “Selective iGluR5 receptor antagonists” (Eli Lilly and Company, priority 1999, dated 2007).

For the compound `O=C(O)c1ccc(C[C@H]2CC[C@H]3CN[C@H](C(=O)O)C[C@H]3C2)cc1` [Compound I, 3S,4aR,6S,8aR-6-(((4-carboxy)phenyl)methyl)-1,2,3,4,4a,5,6,7,8,8a-decahydroisoquinoline-3-carboxylic acid], the “Inhibition of Dural Protein Extravasation ID50” value in assay [1] is reported as 6.5 (rat), ng/Kg; in assay [2], 4.0 (Gpig) ng/Kg.
On to `O=C(O)[C@@H]1C[C@H]2C[C@@H](COCc3nnn[nH]3)CC[C@H]2CN1` [Compound II, 3S,4aR,6S,8aR-6-((((1H-Tetrazole-5-yl)methyl)oxy)methyl)-1,2,3,4,4a,5,6,7,8,8a-decahydroisoquinoline-3-carboxylic acid], for which the “Inhibition of Dural Protein Extravasation ID50” value in assay [1] is reported as 15 (rat) ng/Kg.
For the compound `O=C(O)[C@@H]1C[C@H]2C[C@@H](CCSc3nnn[nH]3)CC[C@H]2CN1` [Compound III], in assay [1], the “Inhibition of Dural Protein Extravasation ID50” value is reported as “.0053 (rat) ng/Kg”.
For the compound `CCOC(=O)[C@@H]1C[C@H]2C[C@@H](CN3CC(F)(F)C[C@H]3C(=O)OCC)CC[C@H]2CN1` [Compound IV(b), 3S,4aR,6S,8aR Ethyl 6-(((2S)-2-(Ethoxycarbonyl)-4,4-difluoropyrrolidinyl)methyl)-1,2,3,4,4a,5,6,7,8,8a-decahydroisoquinoline-3-carboxylate], in assay [1] (p.o., species not given), the “Inhibition of Dural Protein Extravasation ID100” value turned out to be 1e-05 µg/kg.
